Reference: ChEMBL document CHEMBL3132757, “A new class of fluorinated 5-pyrrolidinylsulfonyl isatin caspase inhibitors for PET imaging of apoptosis” (Medchemcomm, 2013)

What was measured:
Caspase-1 = target: T1, Caspase-1 (Homo sapiens, UniProt P29466); experiment: Inhibition of recombinant human caspase-1 expressed in Escherichia coli using Ac-YVAD-AMC as substrate preincubated for 30 mins before substrate addition measured after 2 hrs
T1 sequence (P29466 whole entry): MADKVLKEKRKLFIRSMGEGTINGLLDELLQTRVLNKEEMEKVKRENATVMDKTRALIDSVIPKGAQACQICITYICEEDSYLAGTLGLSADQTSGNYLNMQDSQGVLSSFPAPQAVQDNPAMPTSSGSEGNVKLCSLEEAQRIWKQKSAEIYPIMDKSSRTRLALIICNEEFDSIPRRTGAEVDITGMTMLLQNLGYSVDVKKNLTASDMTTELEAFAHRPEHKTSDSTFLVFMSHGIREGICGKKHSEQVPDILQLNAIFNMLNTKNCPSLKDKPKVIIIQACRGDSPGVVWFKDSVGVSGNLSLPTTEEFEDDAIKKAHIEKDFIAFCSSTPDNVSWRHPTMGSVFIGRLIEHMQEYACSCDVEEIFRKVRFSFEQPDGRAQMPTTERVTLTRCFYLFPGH

Caspase-6 = target: T2, Caspase-6 (Homo sapiens, UniProt P55212); experiment: Inhibition of recombinant human caspase-6 expressed in Escherichia coli using Ac-VEID-AMC as substrate preincubated for 30 mins before substrate addition measured after 2 hrs
T2 sequence (P55212 whole entry): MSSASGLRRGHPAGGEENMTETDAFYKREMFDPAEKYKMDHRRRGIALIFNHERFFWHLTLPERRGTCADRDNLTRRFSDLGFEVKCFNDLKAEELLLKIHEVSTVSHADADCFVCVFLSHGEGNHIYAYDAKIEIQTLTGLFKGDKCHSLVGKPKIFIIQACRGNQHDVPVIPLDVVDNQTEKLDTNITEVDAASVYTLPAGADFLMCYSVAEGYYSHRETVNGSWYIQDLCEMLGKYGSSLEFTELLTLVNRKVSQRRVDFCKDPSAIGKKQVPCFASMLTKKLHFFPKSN

Caspase-8 = Caspase-8 (Homo sapiens, UniProt Q14790); experiment: Inhibition of recombinant human caspase-8 expressed in Escherichia coli using Ac-IETD-AMC as substrate preincubated for 30 mins before substrate addition measured after 2 hrs
Chain of Caspase-8 (Q14790 217-374 limits assumed): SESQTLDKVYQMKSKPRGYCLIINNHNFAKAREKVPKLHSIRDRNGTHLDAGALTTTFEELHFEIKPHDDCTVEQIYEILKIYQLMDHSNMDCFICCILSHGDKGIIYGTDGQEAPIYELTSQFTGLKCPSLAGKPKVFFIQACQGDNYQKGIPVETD
Chain of Caspase-8 (Q14790 385-479 limits assumed): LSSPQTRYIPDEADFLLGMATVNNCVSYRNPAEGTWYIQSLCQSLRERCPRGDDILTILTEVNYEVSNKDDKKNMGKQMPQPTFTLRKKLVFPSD

[1] = Lipophilicity, log P of the compound by HPLC method; assay type: physicochemical
Caspase-3 = target: T3, Caspase-3 (Homo sapiens, UniProt P42574); experiment: Inhibition of recombinant human caspase-3 expressed in Escherichia coli using Ac-DEVD-AMC as substrate preincubated for 30 mins before substrate addition measured after 2 hrs
T3 sequence (P42574 whole entry): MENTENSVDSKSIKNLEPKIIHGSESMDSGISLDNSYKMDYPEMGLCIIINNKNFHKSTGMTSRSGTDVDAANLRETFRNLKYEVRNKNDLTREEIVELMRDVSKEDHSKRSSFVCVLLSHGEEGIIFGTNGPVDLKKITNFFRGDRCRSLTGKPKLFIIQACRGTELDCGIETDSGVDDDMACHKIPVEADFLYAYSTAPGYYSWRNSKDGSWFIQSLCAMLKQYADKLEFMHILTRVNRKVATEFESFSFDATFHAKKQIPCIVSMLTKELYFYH

Caspase-7 = target: T4, Caspase-7 (Homo sapiens, UniProt P55210); experiment: Inhibition of recombinant human caspase-7 expressed in Escherichia coli using Ac-DEVD-AMC as substrate preincubated for 30 mins before substrate addition measured after 2 hrs
T4 sequence (P55210 whole entry): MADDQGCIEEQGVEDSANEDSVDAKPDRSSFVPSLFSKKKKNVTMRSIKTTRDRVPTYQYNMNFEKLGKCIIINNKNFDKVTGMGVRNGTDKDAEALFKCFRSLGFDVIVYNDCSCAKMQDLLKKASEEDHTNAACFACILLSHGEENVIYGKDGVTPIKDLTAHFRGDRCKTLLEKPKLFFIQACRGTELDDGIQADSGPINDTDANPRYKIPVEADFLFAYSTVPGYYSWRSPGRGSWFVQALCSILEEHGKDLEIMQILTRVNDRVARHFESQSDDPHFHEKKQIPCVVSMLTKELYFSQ

Row | SMILES | IC50 (Caspase-1) [nM] | IC50 (Caspase-6) [nM] | IC50 (Caspase-8) [nM] | logP [1] | IC50 (Caspase-3) [nM] | IC50 (Caspase-7) [nM]
1 | O=C1C(=O)N(Cc2ccc(OCCF)cc2)c2ccc(S(=O)(=O)N3CCC[C@H]3COc3ccccc3)cc21 | > 10000 | > 10000 | > 10000 | 3.78 | 6.1 | 
2 | COC[C@@H]1CCCN1S(=O)(=O)c1ccc2c(c1)C(=O)C(=O)N2Cc1ccc(OCCF)cc1 | > 10000 | > 10000 | > 10000 | 2.08 | 8.3 | 4.6
3 | O=C1C(=O)N(Cc2ccccc2[N+](=O)[O-])c2ccc(S(=O)(=O)N3CCC[C@H]3CF)cc21 | 672 | 5080 | > 10000 | 2.28 | 3.1 | 19.8
4 | O=C1C(=O)N(Cc2ccc([N+](=O)[O-])cc2)c2ccc(S(=O)(=O)N3CCC[C@H]3CF)cc21 | > 10000 | > 10000 | > 10000 | 2.39 | 6.3 | 11.2
5 | O=C1C(=O)N(Cc2nnnn2Cc2ccccc2)c2ccc(S(=O)(=O)N3CCC[C@H]3CF)cc21 | 1880 | > 10000 | > 10000 | 1.94 | 4.4 | 25.3
6 | O=C1C(=O)N(Cc2ccc(OCCF)cc2)c2ccc(S(=O)(=O)N3CC4CNCC4C3)cc21 (stereo unspecified) | > 10000 | > 10000 | > 10000 | 1.19 | 2210 | 3510
7 | O=C1C(=O)N(Cc2ccccc2)c2ccc(S(=O)(=O)N3CCC[C@H]3CF)cc21 | > 10000 | > 10000 | > 10000 | 2.61 | 13.9 | 20.4
8 | O=C1C(=O)N(Cc2ccc(F)cc2)c2ccc(S(=O)(=O)N3CCC[C@H]3CF)cc21 | > 10000 | > 10000 | > 10000 | 2.5 | 15.2 | 14
9 | O=C1C(=O)N(Cc2ccccc2I)c2ccc(S(=O)(=O)N3CCC[C@H]3CF)cc21 | 522 | 3880 | > 10000 | 3.25 | 9.6 | 24
10 | O=C1C(=O)N(Cc2cccc(I)c2)c2ccc(S(=O)(=O)N3CCC[C@H]3CF)cc21 | 1700 | > 10000 | > 10000 | 3.21 | 11.6 | 21.8

Second part, the molecule after the results:

Row | IC50 (Caspase-1) [nM] | IC50 (Caspase-6) [nM] | IC50 (Caspase-8) [nM] | logP [1] | IC50 (Caspase-3) [nM] | IC50 (Caspase-7) [nM] | SMILES
11 | > 10000 | > 10000 | > 10000 | 2.2 | 17.6 | 6.1 | COC[C@@H]1CCCN1S(=O)(=O)c1ccc2c(c1)C(=O)C(=O)N2Cc1ccc(OC)cc1
12 | 4690 | > 10000 | > 10000 | 2.28 | 12.8 | 16.5 | O=C1C(=O)N(Cc2cccc([N+](=O)[O-])c2)c2ccc(S(=O)(=O)N3CCC[C@H]3CF)cc21
13 | > 10000 | > 10000 | > 10000 | 2.33 | 19.2 | 41.4 | O=C1C(=O)N(Cc2ccc(OCCF)cc2)c2ccc(S(=O)(=O)N3CCC[C@H]3CF)cc21
14 | > 10000 | > 10000 | > 10000 | 3.11 | 6.2 | 15.9 | O=C1C(=O)N(Cc2ccc(Br)cc2)c2ccc(S(=O)(=O)N3CCC[C@H]3CF)cc21
15 | > 10000 | > 10000 | > 10000 | 2.96 | 7.1 | 14.2 | O=C1C(=O)N(Cc2ccc(Cl)cc2)c2ccc(S(=O)(=O)N3CCC[C@H]3CF)cc21
16 | > 10000 | 3790 | > 10000 | 3.31 | 8.1 | 5.4 | O=C1C(=O)N(Cc2ccc(I)cc2)c2ccc(S(=O)(=O)N3CCC[C@H]3CF)cc21
17 | > 10000 | > 10000 | > 10000 | 2.65 | 13.7 | 9.6 | COc1ccc(CN2C(=O)C(=O)c3cc(S(=O)(=O)N4CCC[C@H]4CF)ccc32)cc1
